Literature values in patent US12048727B2, “Synergistic formulation against acne and a process for the preparation thereof” (COUNCIL OF SCIENTIFIC & INDUSTRIAL RESEARCH, priority 2019, dated 2024).

System: P. acnes strains
Settings: Indian population

Structure (SMILES)	resistance of antibiotics [%]
CC[C@H]1OC(=O)[C@H](C)[C@@H](O[C@H]2C[C@@](C)(OC)[C@@H](O)[C@H](C)O2)[C@H](C)[C@@H](O[C@@H]2O[C@H](C)C[C@H](N(C)C)[C@H]2O)[C@](C)(O)C[C@@H](C)C(=O)[C@H](C)[C@@H](O)[C@]1(C)O [erythromycin]	98
CC[C@H]1OC(=O)[C@H](C)[C@@H](O[C@H]2C[C@@](C)(OC)[C@@H](O)[C@H](C)O2)[C@H](C)[C@@H](O[C@@H]2O[C@H](C)C[C@H](N(C)C)[C@H]2O)[C@](C)(O)C[C@@H](C)CN(C)[C@H](C)[C@@H](O)[C@]1(C)O [azithromycin]	100
